Measurements reported in publication PMC10763615, “Identification and engineering of potent cyclic peptides with selective or promiscuous binding through biochemical profiling and bioinformatic data analysis” (RSC Chemical Biology, 2023).
Where two headings read alike, the source gives them in different places.

Experiments:
[1] = biological target: T1, FGF-R1C ECD (Homo sapiens, UniProt P11362); assay: biochemical
T1 sequence (P11362 22-376 limits assumed): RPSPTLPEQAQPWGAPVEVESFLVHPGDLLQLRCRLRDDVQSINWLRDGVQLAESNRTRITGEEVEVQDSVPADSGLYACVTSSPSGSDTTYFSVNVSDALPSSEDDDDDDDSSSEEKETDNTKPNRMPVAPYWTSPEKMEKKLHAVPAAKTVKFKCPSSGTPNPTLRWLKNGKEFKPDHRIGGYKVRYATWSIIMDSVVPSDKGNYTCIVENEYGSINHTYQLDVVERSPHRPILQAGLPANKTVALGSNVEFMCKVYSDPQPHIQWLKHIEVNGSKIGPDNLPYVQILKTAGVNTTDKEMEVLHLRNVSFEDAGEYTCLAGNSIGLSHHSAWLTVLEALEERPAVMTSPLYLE
Summary of the method: (§1)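 Streptavidin biosensors carrying biotinylated FGF receptor ECD were immersed in peptide (~1 μM for crude single-point runs, a concentration series for purified peptides) and then in peptide-free buffer. KD was obtained by fitting the BLI association and dissociation curves.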

[2] = biological target: T2, FGF-R3C ECD (Homo sapiens, UniProt P22607); assay: biochemical
T2 sequence (P22607 23-375 limits assumed): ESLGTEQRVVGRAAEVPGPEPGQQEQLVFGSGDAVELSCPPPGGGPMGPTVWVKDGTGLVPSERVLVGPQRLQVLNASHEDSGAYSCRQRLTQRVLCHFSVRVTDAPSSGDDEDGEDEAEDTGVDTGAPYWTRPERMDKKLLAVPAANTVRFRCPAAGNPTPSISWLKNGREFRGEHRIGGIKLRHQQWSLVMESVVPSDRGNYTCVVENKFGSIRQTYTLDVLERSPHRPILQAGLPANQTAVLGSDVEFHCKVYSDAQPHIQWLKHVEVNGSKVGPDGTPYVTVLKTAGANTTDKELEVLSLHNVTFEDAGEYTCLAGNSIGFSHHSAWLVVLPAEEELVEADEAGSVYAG
Summary of the method: as §1

[3] = biological target: T3, FGF-R4 ECD (Homo sapiens, UniProt P22455); assay: multi-concentration BLI of purified peptides; format: binding; settings: purified NNK library peptides
T3 construct: DNA constructs for the extracellular domain (ECD) of human FGF-; HPC4 (C); made in house; host or cells: HEK 293-6E
T3 sequence (P22455 22-369 limits assumed): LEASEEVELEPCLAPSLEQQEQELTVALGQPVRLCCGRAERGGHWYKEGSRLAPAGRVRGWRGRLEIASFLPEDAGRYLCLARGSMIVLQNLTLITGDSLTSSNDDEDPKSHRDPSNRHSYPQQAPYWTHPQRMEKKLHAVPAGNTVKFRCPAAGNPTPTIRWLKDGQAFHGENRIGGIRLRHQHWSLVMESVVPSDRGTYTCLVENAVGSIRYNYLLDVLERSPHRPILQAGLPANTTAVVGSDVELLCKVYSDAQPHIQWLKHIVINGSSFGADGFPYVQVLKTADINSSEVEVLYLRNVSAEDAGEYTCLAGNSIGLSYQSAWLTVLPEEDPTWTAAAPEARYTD
Summary of the method: as §1

[4] = biological target: T3, FGF-R4 ECD; assay: single concentration BLI of crude peptides; format: binding; settings: crude NNK peptides, single concentration BLI (Table S3); read-out: KD (4)
Summary of the method: as §1

[5] = biological target: T4, FGFR1c/KLB (Fc-fused human FGF-R1alpha(IIIc) with beta-klotho) (Homo sapiens, UniProt P11362); assay: AlphaScreen FGF21 competitive binding assay
T4 sequence (P11362 22-376 limits assumed): T1 sequence (P11362 22-376 limits assumed)
Description: Alphascreen binding assay
(§2) The competitive binding assay was carried out according to the methods detailed in Hansen. et al using
(§3) AlphaScreen.3 All reagents and samples were prepared in assay buffer: 40mM Hepes, 140mM NaCl, 1mM
(§4) CaCl2, 0,05% Tween20, pH=7.5, 0.1% BSA. In brief, recombinant human beta-klotho (R&D Systems) was
(§5) preincubated for 60 min with the ectodomain, either Fc-fused human FGF-R1alpha(IIIc), FGF-R3alpha(IIIc)
(§6) or FGF-R4 (R&D Systems), and the mixture was added to the test peptides in OptiPlate™ (PerkinElmer).
(§7) Biotinylated FGF21 and heparin were further added to each well. AlphaScreen bead mix (1:1 mix of Protein
(§8) A acceptor beads/ streptavidin-coated donor beads, PerkinElmer) were added to each well incubated
(§9) overnight at RT in the dark, and measured on a plate reader (Envision). Assays were carried out in triplicates
(§10) with concentrations ranging from 3, 10, 30, 100, 300 ,1000 and 3000 nM of peptide. No peptide control
(§11) (media only) was used as a negative control, and unlabeled FGF21 and FGF1 as positive control.
(§12) competing with biotinylated natural FGF21 ligand.

[6] = biological target: T5, FGFR3c/BKL (Fc-fused human FGF-R3alpha(IIIc) with beta-klotho) (Homo sapiens, UniProt P22607); assay: AlphaScreen FGF21 competitive binding assay
T5 sequence (P22607 23-375 limits assumed): T2 sequence (P22607 23-375 limits assumed)
Description: Alphascreen binding assay
as §2, §3, §4, §5, §6, §7, §8, §9, §10, §11, §12

[7] = biological target: T6, FGFR4/KLB (Fc-fused human FGF-R4 with beta-klotho) (Homo sapiens, UniProt P22455); assay: AlphaScreen FGF21 competitive binding assay
T6 sequence (P22455 22-369 limits assumed): T3 sequence (P22455 22-369 limits assumed)
Description: Alphascreen binding assay
as §2, §3, §4, §5, §6, §7, §8, §9, §10, §11, §12

[8] = biological target: T1, FGF-R1C ECD; assay: biochemical; format: binding; design: DNA constructs for the extracellular domain (ECD) of human FGF-; HPC4 (C); made in house; host or cells: HEK 293-6E
Summary of the method: as §1

[9] = biological target: T2, FGF-R3C ECD; assay: biochemical; format: binding; design: DNA constructs for the extracellular domain (ECD) of human FGF-; HPC4 (C); made in house; host or cells: HEK 293-6E
Summary of the method: as §1

SMILES | Kd [1] [nM] | Kd [2] [nM] | Kd [3] [nM] | Kd [4] [nM] | IC50 [5] [nM] | IC50 [6] [nM] | IC50 [7] [nM] | Kd [8] [nM] | Kd [9] [nM]
CC[C@H](C)[C@@H]1NC(=O)[C@H](Cc2c[nH]c3ccccc23)NC(=O)[C@@H]2CCCN2C(=O)[C@H](CCC(=O)O)NC(=O)[C@@H](NC(=O)[C@H](CCSC)NC(C)=O)CSSC[C@@H](C(=O)NCC(=O)N[C@@H](CO)C(=O)NCC(=O)N[C@@H](CO)C(=O)N[C@@H](CC(=O)O)C(=O)N[C@@H](Cc2ccc(O)cc2)C(=O)N[C@@H](CCCCN)C(=O)N[C@@H](CC(=O)O)C(=O)N[C@@H](CC(=O)O)C(=O)N[C@@H](CC(=O)O)C(=O)N[C@@H](CC(=O)O)C(=O)N[C@@H](CCCCN)C(N)=O)NC(=O)[C@H](CCCCN)NC(=O)[C@H](CCCCN)NC(=O)[C@H](CC(C)C)NC(=O)[C@H](C(C)C)NC(=O)[C@H](CCCCN)NC(=O)[C@H](Cc2ccc(O)cc2)NC(=O)[C@H]([C@@H](C)CC)NC(=O)[C@H]([C@@H](C)O)NC1=O [4.8] | > 1000 | > 1000 | 478 | 287 | > 1000 | > 1000 | 945 | > 10000 | 1250
CC[C@H](C)[C@@H]1NC(=O)[C@@H]2CCCN2C(=O)[C@H](Cc2ccccc2)NC(=O)[C@@H]2CCCN2C(=O)[C@H](Cc2c[nH]c3ccccc23)NC(=O)[C@@H]2CCCN2C(=O)[C@H](Cc2ccccc2)NC(=O)[C@H](CCCCN)NC(=O)[C@H]([C@@H](C)O)NC(=O)[C@@H](NC(=O)[C@@H](N)CCSC)CSSC[C@@H](C(=O)NCC(=O)N[C@@H](CO)C(=O)NCC(=O)N[C@@H](CO)C(=O)N[C@@H](CC(=O)O)C(=O)N[C@@H](Cc2ccc(O)cc2)C(=O)N[C@@H](CCCCN)C(=O)N[C@@H](CC(=O)O)C(=O)N[C@@H](CC(=O)O)C(=O)N[C@@H](CC(=O)O)C(=O)N[C@@H](CC(=O)O)C(=O)N[C@@H](CCCCN)C(N)=O)NC(=O)[C@H](C)NC(=O)[C@H](Cc2c[nH]c3ccccc23)NC(=O)[C@H](Cc2ccccc2)NC1=O [1C.8] | 323 | > 1000 | 464 | 70 | 112 | > 1000 | 431 | 155 | 47
CSCC[C@H](N)C(=O)N[C@H]1CSSC[C@@H](C(=O)NCC(=O)N[C@@H](CO)C(=O)NCC(=O)N[C@@H](CO)C(=O)N[C@@H](CC(=O)O)C(=O)N[C@@H](Cc2ccc(O)cc2)C(=O)N[C@@H](CCCCN)C(=O)N[C@@H](CC(=O)O)C(=O)N[C@@H](CC(=O)O)C(=O)N[C@@H](CC(=O)O)C(=O)N[C@@H](CC(=O)O)C(=O)N[C@@H](CCCCN)C(N)=O)NC(=O)[C@H](Cc2ccccc2)NC(=O)[C@@H]2CCCN2C(=O)[C@H]([C@@H](C)O)NC(=O)[C@H](CC(C)C)NC(=O)[C@H](Cc2c[nH]cn2)NC(=O)[C@H](Cc2c[nH]cn2)NC(=O)[C@H](Cc2ccccc2)NC(=O)[C@H](CC(C)C)NC(=O)[C@H](CCCNC(=N)N)NC(=O)[C@H](Cc2c[nH]c3ccccc23)NC(=O)[C@H](CCCNC(=N)N)NC(=O)[C@H](Cc2ccccc2)NC1=O [1C.10] | 101 | > 1000 | 73 | 79 | 84 | > 1000 | 283 | 50 | > 10000
CSCC[C@H](N)C(=O)N[C@H]1CSSC[C@@H](C(=O)NCC(=O)N[C@@H](CO)C(=O)NCC(=O)N[C@@H](CO)C(=O)N[C@@H](CC(=O)O)C(=O)N[C@@H](Cc2ccc(O)cc2)C(=O)N[C@@H](CCCCN)C(=O)N[C@@H](CC(=O)O)C(=O)N[C@@H](CC(=O)O)C(=O)N[C@@H](CC(=O)O)C(=O)N[C@@H](CC(=O)O)C(=O)N[C@@H](CCCCN)C(N)=O)NC(=O)[C@H](C(C)C)NC(=O)[C@H](Cc2c[nH]c3ccccc23)NC(=O)[C@H](Cc2ccc(O)cc2)NC(=O)[C@H](CCCNC(=N)N)NC(=O)[C@H](CC(=O)O)NC(=O)[C@H](Cc2ccccc2)NC(=O)[C@H](Cc2c[nH]cn2)NC(=O)[C@H](CCCNC(=N)N)NC(=O)[C@H]([C@@H](C)O)NC(=O)[C@H](Cc2c[nH]c3ccccc23)NC(=O)[C@H](CC(C)C)NC(=O)[C@H](CC(C)C)NC1=O [1C.2] | 64 | > 1000 | > 1000 | > 10000 | 108 | > 1000 | > 1000 | 95 | > 10000
